These results are taken from article PMC6364417, “Kinase inhibitor library screening identifies synergistic drug combinations effective in sensitive and resistant melanoma cells” (Journal of Experimental & Clinical Cancer Research : CR, 2019).

What all share (assay): Kinase inhibitor library screening, PrestoBlue cell viability, 1 or 10 μM, 72 h
One experiment relates to 501Mel cells (parental). The conditions noted are these: for viability at 1 µM / viability at 10 µM: Homo sapiens; for viability at 1 µM: read-out: cell viability, 501Mel Parental, 1μΜ; for viability at 10 µM: read-out: cell viability, 501Mel Parental, 10μΜ. As to the method:
(§1) After 72 h of treatment, cell viability was assessed using the PrestoBlue Cell Viability Reagent (ThermoFisher Scientific). Measurements were performed with the CLARIOstar Monochromator microplate reader (BMG Labtech).
(§2) Kinase inhibitor library screening. […] Each cell line was treated in its sensitive form (parental), and also as 2 resistant derivatives, which were made resistant to either Vemurafenib (XP) or Dabrafenib (GP). Drugs were added at 2 different concentrations, 1 and 10 μM, for 72 h and cell viability was assessed using the PrestoBlue Cell Viability assay. Results are depicted as % viability compared to untreated cells. Each cell line was analyzed at least in duplicate. […] (XLSX 95 kb)

Experiment [1] has as its system 501Mel-GP cells (Dabrafenib-resistant). The conditions noted are these: for viability at 1 µM / viability at 10 µM: Homo sapiens; for viability at 1 µM: read-out: cell viability, 501Mel GP, 1μΜ; for viability at 10 µM: read-out: cell viability, 501Mel GP, 10μΜ. As for the experimental part:
as §1, §2

Experiment [2] has as its system 501Mel-XP cells (Vemurafenib-resistant). As to conditions: for viability at 1 µM / viability at 10 µM: Homo sapiens; for viability at 1 µM: read-out: cell viability, 501Mel XP, 1μΜ; for viability at 10 µM: read-out: cell viability, 501Mel XP, 10μΜ. As for the experimental part:
as §1, §2

For a further experiment, the system named is A375 cells (parental). As to conditions: for viability at 1 µM / viability at 10 µM: Homo sapiens, A-375, 72 h; for viability at 1 µM: read-out: cell viability, A375 Parental, 1μΜ; for viability at 10 µM: read-out: cell viability, A375 Parental, 10μΜ. As for the experimental part: as §1, §2
Experiment [3] concerns A375-GP cells (Dabrafenib-resistant). As to conditions: for viability at 1 µM / viability at 10 µM: Homo sapiens, A-375, 72 h; for viability at 1 µM: read-out: cell viability, A375 GP, 1μΜ; for viability at 10 µM: read-out: cell viability, A375 GP, 10μΜ. As for the experimental part:
as §1, §2

Experiment [4] concerns A375-XP cells (Vemurafenib-resistant). The conditions noted are these: for viability at 1 µM / viability at 10 µM: Homo sapiens, A-375, 72 h; for viability at 1 µM: read-out: cell viability, A375 XP, 1μΜ; for viability at 10 µM: read-out: cell viability, A375 XP, 10μΜ. As to the method:
as §1, §2

The next experiment concerns IGR37 cells (parental). As to conditions: for viability at 1 µM / viability at 10 µM: Homo sapiens, IGR-37, 72 h; for viability at 1 µM: read-out: cell viability, IGR37 Parental, 1μΜ; for viability at 10 µM: read-out: cell viability, IGR37 Parental, 10μΜ. As to the method:
as §1, §2

For experiment [5], the system named is IGR37-GP cells (Dabrafenib-resistant). As to conditions: for viability at 1 µM / viability at 10 µM: Homo sapiens, IGR-37, 72 h; for viability at 1 µM: read-out: cell viability, IGR37 GP, 1μΜ; for viability at 10 µM: read-out: cell viability, IGR37 GP, 10μΜ. As to the method:
as §1, §2

Experiment [6] has as its system IGR37-XP cells (Vemurafenib-resistant). The conditions noted are these: for viability at 1 µM / viability at 10 µM: Homo sapiens, IGR-37, 72 h; for viability at 1 µM: read-out: cell viability, IGR37 XP, 1μΜ; for viability at 10 µM: read-out: cell viability, IGR37 XP, 10μΜ. As for the experimental part:
as §1, §2

Broadly, the viability is a read-out of living cells in per cent, often relative to untreated cells.

As to `O=C1Nc2ccccc2/C1=C1/Nc2ccccc2C1=O` [Indirubin], the viability at 1 µM in the experiment with 501Mel cells (parental) (72 h) is 104%; in experiment [1] (72 h) it was 102%; in [2] (72 h) it was 88.9%; in the experiment with A375 cells (parental), 101%; in [3], 95.3%; in [4], 102%. Besides, the viability at 1 µM was determined as 100% in the experiment on IGR37 cells (parental), 94.7% in experiment [5] and 95.7% in [6]. Moreover, the viability at 10 µM in the experiment on 501Mel cells (parental) (72 h) was 101%; in experiment [1] (72 h) it was 91.5%; in experiment [2] (72 h), 70.4%; in the experiment on A375 cells (parental) it was 95.1%; in experiment [3], 96.4%; in [4], 103%. Further, the viability at 10 µM with IGR37 cells (parental) stood at 105%; in [5] it was 91.3%; in experiment [6], 75.6%.

Consider `COCCNCc1ccc(-c2cc3nccc(Oc4ccc(NC(=S)NC(=O)Cc5ccc(F)cc5)cc4F)c3s2)nc1` [MGCD-265], for which the “cell viability (kinase inhibitor library screening)” value came to 104.7% in the experiment with 501Mel cells (parental) (501Mel Parental, 1μΜ, 72 h); 94.4% in the experiment with 501Mel cells (parental) (501Mel Parental, 10μΜ, 72 h); 89.8% in experiment [1] (501Mel GP, 1μΜ, 72 h); 68.8% in experiment [1] (501Mel GP, 10μΜ, 72 h); 76.7% in experiment [2] (501Mel XP, 1μΜ, 72 h); 64.2% in experiment [2] (501Mel XP, 10μΜ, 72 h). Moreover, the “cell viability (kinase inhibitor library screening)” value in the experiment on A375 cells (parental) (A375 Parental, 10μΜ, 72 h) worked out at 83.0%; in experiment [3] (A375 GP, 1μΜ, 72 h), 95.5%; in experiment [3] (A375 GP, 10μΜ, 72 h) it was 85.6%; in experiment [4] (A375 XP, 1μΜ, 72 h), 104.8%; in [4] (A375 XP, 10μΜ, 72 h), 98.2%; with IGR37 cells (parental) (IGR37 Parental, 1μΜ, 72 h), 96.8%. Further, the “cell viability (kinase inhibitor library screening)” value with IGR37 cells (parental) (IGR37 Parental, 10μΜ, 72 h) came out at 92.1%; in experiment [5] (IGR37 GP, 1μΜ, 72 h) it was 91.8%; in experiment [5] (IGR37 GP, 10μΜ, 72 h), 78.3%; in experiment [6] (IGR37 XP, 1μΜ, 72 h) it was 91.5%; in experiment [6] (IGR37 XP, 10μΜ, 72 h), 50.3%.

On to `FC(F)c1nc2ccccc2n1-c1nc(N2CCOCC2)nc(N2CCOCC2)n1` [ZSTK474], for which, in the experiment with 501Mel cells (parental) (501Mel Parental, 1μΜ, 72 h, in %), the “Cell viability in kinase inhibitor library screening, 501Mel Parental, 1μΜ” value is reported as 66.9. Further, in the experiment on 501Mel cells (parental) (501Mel Parental, 10μΜ, 72 h, in %), the “Cell viability in kinase inhibitor library screening, 501Mel Parental, 10μΜ” value came to 8.9. The “Cell viability in kinase inhibitor library screening, 501Mel GP, 1μΜ” value in experiment [1] (501Mel GP, 1μΜ, 72 h, in %) worked out at 45.9. For the same compound, in [1] (501Mel GP, 10μΜ, 72 h, in %), the “Cell viability in kinase inhibitor library screening, 501Mel GP, 10μΜ” value amounted to 9.4. Besides, the “Cell viability in kinase inhibitor library screening, 501Mel XP, 10μΜ” value in experiment [2] (501Mel XP, 10μΜ, 72 h, in %) is 2.5. Moreover, the “Cell viability in kinase inhibitor library screening, A375 Parental, 10μΜ” value in the experiment with A375 cells (parental) (A375 Parental, 10μΜ, 72 h) worked out at 16.3. Besides, the “Cell viability in kinase inhibitor library screening, A375 Parental, 1μΜ” value in the experiment with A375 cells (parental) (A375 Parental, 1μΜ, 72 h) came to 76.3. The “Cell viability in kinase inhibitor library screening, A375 GP, 1μΜ” value in experiment [3] (A375 GP, 1μΜ, 72 h) stood at 69.9. In experiment [3] (A375 GP, 10μΜ, 72 h), the “Cell viability in kinase inhibitor library screening, A375 GP, 10μΜ” value was 13.0. In [4] (A375 XP, 1μΜ, 72 h), the “Cell viability in kinase inhibitor library screening, A375 XP, 1μΜ” value was found to be 67.6. Moreover, in experiment [4] (A375 XP, 10μΜ, 72 h), the “Cell viability in kinase inhibitor library screening, A375 XP, 10μΜ” value is given as 15.9. Moreover, the “Cell viability in kinase inhibitor library screening, IGR37 Parental, 1μΜ” value in the experiment with IGR37 cells (parental) (IGR37 Parental, 1μΜ, 72 h, in %) was 77.8. Moreover, the “Cell viability in kinase inhibitor library screening, IGR37 Parental, 10μΜ” value in the experiment on IGR37 cells (parental) (IGR37 Parental, 10μΜ, 72 h, in %) is 23.8. The compound also had a Cell viability in kinase inhibitor library screening, IGR37 GP, 10μΜ in experiment [5] (IGR37 GP, 10μΜ, 72 h) of 8.8%. Further, the “Cell viability in kinase inhibitor library screening, IGR37 GP, 1μΜ” value in [5] (IGR37 GP, 1μΜ, 72 h, in %) was 80.3. In addition, the Cell viability in kinase inhibitor library screening, IGR37 XP, 10μΜ in experiment [6] (IGR37 XP, 10μΜ, 72 h) came to 4.7%. Besides, the “Cell viability in kinase inhibitor library screening, IGR37 XP, 1μΜ” value in [6] (IGR37 XP, 1μΜ, 72 h, in %) is 71.7.

`COc1cc2nccc(Oc3ccc(NC(=O)NC4CC4)c(Cl)c3)c2cc1C(N)=O` [E7080 (Lenvatinib)]: the “cell viability (kinase inhibitor library screening)” value in the experiment with 501Mel cells (parental) (501Mel Parental, 1μΜ, in %) amounted to 106.1; in the experiment with 501Mel cells (parental) (501Mel Parental, 10μΜ, in %), 105.7; in [1] (501Mel GP, 1μΜ, in %), 106.1; in experiment [1] (501Mel GP, 10μΜ, in %) it was 90.9; in experiment [2] (501Mel XP, 1μΜ, in %), 98.9; in [2] (501Mel XP, 10μΜ, in %), 87.0. Also, the “cell viability (kinase inhibitor library screening)” value in the experiment on A375 cells (parental) (A375 Parental, 1μΜ, in %) is on record as 103.7; in the experiment with A375 cells (parental) (A375 Parental, 10μΜ, in %), 95.8; in experiment [3] (A375 GP, 10μΜ, in %) it was 94.8; in experiment [4] (A375 XP, 10μΜ, in %), 109.2; in the experiment on IGR37 cells (parental) (IGR37 Parental, 1μΜ, in %), 102.9; in the experiment on IGR37 cells (parental) (IGR37 Parental, 10μΜ, in %) it was 104.3. Further, the “cell viability (kinase inhibitor library screening)” value in experiment [5] (IGR37 GP, 1μΜ, in %) is recorded as 97.5; in experiment [5] (IGR37 GP, 10μΜ, in %), 86.5; in experiment [6] (IGR37 XP, 1μΜ, in %) it was 97.7; in [6] (IGR37 XP, 10μΜ, in %), 58.8.

With `Clc1ccc(C2(c3ccc(-c4cn[nH]c4)cc3)CCNCC2)cc1` [AT7867], the “cell viability (kinase inhibitor library screening)” value in the experiment on 501Mel cells (parental) (501Mel Parental, 1μΜ, 72 h) was determined as 93.0%; in the experiment with 501Mel cells (parental) (501Mel Parental, 10μΜ, 72 h) it was 5.4%; in [1] (501Mel GP, 1μΜ, 72 h), 93.8%; in experiment [1] (501Mel GP, 10μΜ, 72 h), 20.5%; in experiment [2] (501Mel XP, 1μΜ, 72 h) it was 81.2%; in experiment [2] (501Mel XP, 10μΜ, 72 h) it was 0.172%. Besides, the “cell viability (kinase inhibitor library screening)” value with A375 cells (parental) (A375 Parental, 10μΜ, 72 h) came out at 58.0%; in the experiment with A375 cells (parental) (A375 Parental, 1μΜ, 72 h), 97.2%; in experiment [3] (A375 GP, 1μΜ, 72 h), 82.8%; in experiment [3] (A375 GP, 10μΜ, 72 h) it was 43.6%; in experiment [4] (A375 XP, 1μΜ, 72 h), 99.3%; in [4] (A375 XP, 10μΜ, 72 h) it was 63.1%. Further, the “cell viability (kinase inhibitor library screening)” value with IGR37 cells (parental) (IGR37 Parental, 1μΜ, 72 h) worked out at 98.1%; in the experiment on IGR37 cells (parental) (IGR37 Parental, 10μΜ, 72 h), 84.9%; in experiment [5] (IGR37 GP, 1μΜ, 72 h), 89.7%; in experiment [5] (IGR37 GP, 10μΜ, 72 h), 78.9%; in [6] (IGR37 XP, 1μΜ, 72 h) it was 105.4%; in experiment [6] (IGR37 XP, 10μΜ, 72 h), 42.3%.

On to `CCN(CC)CCCCNc1ncc2cc(-c3cc(OC)cc(OC)c3)c(NC(=O)NC(C)(C)C)nc2n1` [PD173074], for which the viability at 1 µM with 501Mel cells (parental) (72 h) was found to be 103%; in experiment [1] (72 h), 106%; in experiment [2] (72 h), 97.2%; in the experiment with A375 cells (parental), 105%; in experiment [3], 98.2%; in experiment [4], 100%. Also, the viability at 1 µM amounted to 99.8% in the experiment with IGR37 cells (parental), 91.4% in [5] and 92.2% in [6]. In addition, the viability at 10 µM with 501Mel cells (parental) (72 h) is 11.8%; in [1] (72 h), 13.2%; in experiment [2] (72 h), -0.025%; in the experiment on A375 cells (parental) it was 70.1%; in experiment [3], 62.8%; in experiment [4], 72%. The viability at 10 µM with IGR37 cells (parental) was found to be 75.6%; in experiment [5], 50%; in [6] it was 14.7%.
